Source: US8580918B2, “Peptidic GLP-2 agonists” (Ferring B.V., priority 2009, dated 2013)
Where a SMILES comes first, the peptide text is derived from it. [ ]: non-standard residue; d: D form. Dip = N[C@H](C(=O)O)C(c1ccccc1)c1ccccc1; Phe(4-NH2) = Nc1ccc(C[C@H](N)C(=O)O)cc1; 2Nal = N[C@@H](Cc1ccc2ccccc2c1)C(=O)O; hPhe = N[C@@H](CCc1ccccc1)C(=O)O; Cha = N[C@@H](CC1CCCCC1)C(=O)O; Nle = CCCC[C@H](N)C(=O)O

Assay: Pharmacokinetics in rats after intravenous bolus injection (systemic clearance)
Type: in vivo
Details: rat, plasma, 0.2 mg FB/kg, adult male Sprague-Dawley rats, i.v. bolus, dose 0.20 mg FB/kg, read-out: CL (ml/kg/min) Average
Description: Pharmacokinetic (PK) parameters of illustrative agonists of the GLP-2 receptor were determined in adult male Sprague-Dawley rats post intravenous bolus injection of compounds at doses of 0.1-1.0 mg/kg. Three or four doubly cannulated animals per compound were dosed via jugular vein, blood samples were collected at several intervals via carotid artery, and plasma samples were prepared from whole blood using K2EDTA as anticoagulant. Subsequent bioanalysis of samples included compound extraction and plasma concentration determination using standard LC/MS/MS methods. Analyte concentration was calculated from internal standard normalized peak area and calibration curves.
For calculation of PK parameters the compound concentration-time curves were analyzed with the noncompartmental data analysis software package PK Solutions 2.0™ (Summit Research Services, Montrose Colo.). The systemic clearance per kg body weight (CL) was calculated as the dose per kg body weight divided by the AUC extrapolated to infinity based on trapezoid calculation (AUC∞). Values reported are the arithmetic mean and standard deviation from the number of animals used for each compound as indicated on Table 3.

clearance [mL/kg/min] | Compound
0.5 | CCCC[C@H](NC(=O)[C@H](CCC(=O)O)NC(=O)[C@H](CC(=O)O)NC(=O)[C@H](CO)NC(=O)[C@H](Cc1ccccc1)NC(=O)[C@H](CO)NC(=O)CNC(=O)[C@H](CC(=O)O)NC(=O)CNC(=O)[C@@H](N)Cc1c[nH]cn1)C(=O)N[C@@H](CC(N)=O)C(=O)N[C@H](C(=O)N[C@H](C(=O)N[C@@H](CC(C)C)C(=O)N[C@@H](CC(=O)O)C(=O)N[C@@H](Cc1c[nH]c2ccccc12)C(=O)N[C@@H](CC(C)C)C(=O)N[C@@H](C)C(=O)N[C@@H](C)C(=O)N[C@@H](CCCNC(=N)N)C(=O)N[C@@H](CC(=O)O)C(=O)N[C@@H](Cc1ccccc1)C(=O)N[C@H](C(=O)N[C@@H](CC(N)=O)C(=O)N[C@@H](Cc1c[nH]c2ccccc12)C(=O)N[C@@H](CC(C)C)C(=O)N[C@H](C(=O)N[C@@H](CCC(N)=O)C(=O)N[C@H](C(=O)N[C@@H](CCCCN)C(N)=O)[C@@H](C)O)[C@@H](C)CC)[C@@H](C)CC)[C@@H](C)CC)[C@@H](C)O [Compound 22, [Gly2,Nle10,Trp16] hGLP-2 (1-30)-NH2] (H-HGDGSFSDE[Nle]NTILDWLAARDFINWLIQTK-NH2)
1.9 | CCCC[C@H](NC(=O)[C@H](CCC(=O)O)NC(=O)[C@H](CC(=O)O)NC(=O)[C@H](CO)NC(=O)[C@H](Cc1ccccc1)NC(=O)[C@H](CO)NC(=O)CNC(=O)[C@H](CC(=O)O)NC(=O)CNC(=O)[C@@H](N)Cc1c[nH]cn1)C(=O)N[C@@H](CC(N)=O)C(=O)N[C@H](C(=O)N[C@H](C(=O)N[C@@H](CC(C)C)C(=O)N[C@@H](CC(=O)O)C(=O)N[C@@H](Cc1ccc(N)cc1)C(=O)N[C@@H](CC(C)C)C(=O)N[C@@H](C)C(=O)N[C@@H](C)C(=O)N[C@@H](CCCNC(=N)N)C(=O)N[C@@H](CC(=O)O)C(=O)N[C@@H](Cc1ccccc1)C(=O)N[C@H](C(=O)N[C@@H](CC(N)=O)C(=O)N[C@@H](Cc1c[nH]c2ccccc12)C(=O)N[C@@H](CC(C)C)C(=O)N[C@H](C(=O)N[C@@H](CCC(N)=O)C(=O)N[C@H](C(=O)N[C@@H](CCCCN)C(N)=O)[C@@H](C)O)[C@@H](C)CC)[C@@H](C)CC)[C@@H](C)CC)[C@@H](C)O [Compound 24, [Gly2,Nle10,Aph16] hGLP-2 (1-30)-NH2] (H-HGDGSFSDE[Nle]NTILD[Phe(4-NH2)]LAARDFINWLIQTK-NH2)

More lines, now with the values behind:

Compound | clearance [mL/kg/min]
CCCC[C@H](NC(=O)[C@H](CCC(=O)O)NC(=O)[C@H](CC(=O)O)NC(=O)[C@H](CO)NC(=O)[C@H](Cc1ccccc1)NC(=O)[C@H](CO)NC(=O)CNC(=O)[C@H](CC(=O)O)NC(=O)CNC(=O)[C@@H](N)Cc1cnc[nH]1)C(=O)N[C@@H](CC(N)=O)C(=O)N[C@H](C(=O)N[C@H](C(=O)N[C@@H](CC(C)C)C(=O)N[C@@H](CC(=O)O)C(=O)N[C@@H](CC1CCCCC1)C(=O)N[C@@H](CC(C)C)C(=O)N[C@@H](C)C(=O)N[C@@H](C)C(=O)N[C@@H](CCCNC(=N)N)C(=O)N[C@@H](CC(=O)O)C(=O)N[C@@H](Cc1ccccc1)C(=O)N[C@H](C(=O)N[C@@H](CC(N)=O)C(=O)N[C@@H](Cc1c[nH]c2ccccc12)C(=O)N[C@@H](CC(C)C)C(=O)N[C@H](C(=O)N[C@@H](CCC(N)=O)C(=O)N[C@H](C(=O)N[C@@H](CCCCN)C(N)=O)[C@@H](C)O)[C@@H](C)CC)[C@@H](C)CC)[C@@H](C)CC)[C@@H](C)O [Compound 23, [Gly2,Nle10,Cha16] hGLP-2 (1-30)-NH2] (H-HGDGSFSDE[Nle]NTILD[Cha]LAARDFINWLIQTK-NH2) | 0.41
CCCC[C@H](NC(=O)[C@H](CCC(=O)O)NC(=O)[C@H](CC(=O)O)NC(=O)[C@H](CO)NC(=O)[C@H](Cc1ccccc1)NC(=O)[C@H](CO)NC(=O)CNC(=O)[C@H](CC(=O)O)NC(=O)CNC(=O)[C@@H](N)Cc1c[nH]cn1)C(=O)N[C@@H](CC(N)=O)C(=O)N[C@H](C(=O)N[C@H](C(=O)N[C@@H](CC(C)C)C(=O)N[C@@H](CC(=O)O)C(=O)N[C@H](C(=O)N[C@@H](CC(C)C)C(=O)N[C@@H](C)C(=O)N[C@@H](C)C(=O)N[C@@H](CCCNC(=N)N)C(=O)N[C@@H](CC(=O)O)C(=O)N[C@@H](Cc1ccccc1)C(=O)N[C@H](C(=O)N[C@@H](CC(N)=O)C(=O)N[C@@H](Cc1c[nH]c2ccccc12)C(=O)N[C@@H](CC(C)C)C(=O)N[C@H](C(=O)N[C@@H](CCC(N)=O)C(=O)N[C@H](C(=O)N[C@@H](CCCCN)C(N)=O)[C@@H](C)O)[C@@H](C)CC)[C@@H](C)CC)C(c1ccccc1)c1ccccc1)[C@@H](C)CC)[C@@H](C)O [Compound 26, [Gly2,Nle10,Dip16] hGLP-2 (1-30)-NH2] (H-HGDGSFSDE[Nle]NTILD[Dip]LAARDFINWLIQTK-NH2) | 0.33
CCCC[C@H](NC(=O)[C@H](CCC(=O)O)NC(=O)[C@H](CC(=O)O)NC(=O)[C@H](CO)NC(=O)[C@H](Cc1ccccc1)NC(=O)[C@H](CO)NC(=O)CNC(=O)[C@H](CC(=O)O)NC(=O)CNC(=O)[C@@H](N)Cc1c[nH]cn1)C(=O)N[C@@H](CC(N)=O)C(=O)N[C@H](C(=O)N[C@H](C(=O)N[C@@H](CC(C)C)C(=O)N[C@@H](CC(=O)O)C(=O)N[C@@H](CCc1ccccc1)C(=O)N[C@@H](CC(C)C)C(=O)N[C@@H](C)C(=O)N[C@@H](C)C(=O)N[C@@H](CCCNC(=N)N)C(=O)N[C@@H](CC(=O)O)C(=O)N[C@@H](Cc1ccccc1)C(=O)N[C@H](C(=O)N[C@@H](CC(N)=O)C(=O)N[C@@H](Cc1c[nH]c2ccccc12)C(=O)N[C@@H](CC(C)C)C(=O)N[C@H](C(=O)N[C@@H](CCC(N)=O)C(=O)N[C@H](C(=O)N[C@@H](CCCCN)C(N)=O)[C@@H](C)O)[C@@H](C)CC)[C@@H](C)CC)[C@@H](C)CC)[C@@H](C)O [Compound 28, [Gly2,Nle10,hPhe16] hGLP-2 (1-30)-NH2] (H-HGDGSFSDE[Nle]NTILD[hPhe]LAARDFINWLIQTK-NH2) | 0.44

Same assay, conditions: rat, plasma, adult male Sprague-Dawley rats, i.v. bolus, dose 0.18 mg FB/kg, read-out: CL (ml/kg/min) Average

clearance [mL/kg/min] | Compound
0.28 | CCCC[C@H](NC(=O)[C@H](CCC(=O)O)NC(=O)[C@H](CC(=O)O)NC(=O)[C@H](CO)NC(=O)[C@H](Cc1ccccc1)NC(=O)[C@H](CO)NC(=O)CNC(=O)[C@H](CC(=O)O)NC(=O)CNC(=O)[C@@H](N)Cc1c[nH]cn1)C(=O)N[C@@H](CC(N)=O)C(=O)N[C@H](C(=O)N[C@H](C(=O)N[C@@H](CC(C)C)C(=O)N[C@@H](CC(=O)O)C(=O)N[C@@H](Cc1ccc2ccccc2c1)C(=O)N[C@@H](CC(C)C)C(=O)N[C@@H](C)C(=O)N[C@@H](C)C(=O)N[C@@H](CCCNC(=N)N)C(=O)N[C@@H](CC(=O)O)C(=O)N[C@@H](Cc1ccccc1)C(=O)N[C@H](C(=O)N[C@@H](CC(N)=O)C(=O)N[C@@H](Cc1c[nH]c2ccccc12)C(=O)N[C@@H](CC(C)C)C(=O)N[C@H](C(=O)N[C@@H](CCC(N)=O)C(=O)N[C@H](C(=O)N[C@@H](CCCCN)C(N)=O)[C@@H](C)O)[C@@H](C)CC)[C@@H](C)CC)[C@@H](C)CC)[C@@H](C)O [Compound 20, [Gly2,Nle10,2-Nal16] hGLP-2 (1-30)-NH2] (H-HGDGSFSDE[Nle]NTILD[2Nal]LAARDFINWLIQTK-NH2)
